Measured values from patent US10227331B2 (priority 2015, dated 2019).

How the values were obtained:
[1] = system: P. aeruginosa expressing IMP-1, efflux+ (MB9798); assay type: cell-based, Pseudomonas aeruginosa; settings: for P. aeruginosa expressing IMP-1, efflux+ (MB9798) MITC95: imipenem at 2 μg/mL, in the presence of a class A, C, D serine β-lactamase inhibitor closely related to relebactam; for Efflux ratio: ratio MITC95 PA_9798/MITC95 PA_9799
Text: (§1) The strain background is Pseudomonas aeruginosa PAO1.

[2] = biological target: IMP-1 (Serratia marcescens, UniProt P52699); test: biochemical; assay type: biochemical; settings: CCF2-FA substrate, 2 hours at 25° C; read-out: IMP-1 IC50
Summary of the method: (§2)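 Class B activity is measured in the presence of compound by fluorescence with CCF2-FA after a 2-hour incubation at 25° C. IC50 is taken from a 4-parameter fit of semi-logarithmic dose-response data.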

[3] = biological target: NDM-1 (Klebsiella pneumoniae, UniProt C7C422); test: biochemical; assay type: biochemical; settings: CCF2-FA substrate, 2 hours at 25° C; read-out: NDM-1 IC50
Summary of the method: as §2

[4] = system: P. aeruginosa expressing IMP-1, efflux− (MB9799); test: Efflux: concentration of MBL inhibitor which restores susceptibility to imipenem; assay type: cell-based, Pseudomonas aeruginosa; settings: imipenem at 2 μg/mL, in the presence of a class A, C, D serine β-lactamase inhibitor closely related to relebactam
Text: as §1

[5] = biological target: VIM-1 (Pseudomonas aeruginosa (strain ATCC 15692 / DSM 22644 / CIP 104116 / JCM 14847 / LMG 12228 / 1C / PRS 101 / PAO1), UniProt A0A0F7KYQ8); test: biochemical; settings: CCF2-FA substrate, 2 hours at 25° C
Summary of the method: as §2

[6] = system: Serratia marcescens expressing IMP-1 (CL5741); assay type: cell-based; settings: with imipenem 1 μg/ml, 95% inhibition of bacterial growth; for Serratia marcescens MITC95: IMP-1 (CL5741)
Summary of the method: (§3)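 Clinical strains grown overnight on blood agar, then diluted 1:100 in 1.1× CAMHB and exposed to test compound with imipenem at 1 μg/ml. Incubation was 22–24 h at 35° C; growth was read by absorbance to find the compound concentration restoring imipenem susceptibility.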

[7] = system: Klebsiella pneumoniae expressing VIM-1 (IHMA599644); assay type: cell-based; settings: with imipenem 1 μg/ml, 95% inhibition of bacterial growth; for Klebsiella pneumoniae MITC95: VIM-1 (IHMA599644)
Summary of the method: as §3

[8] = system: Escherichia coli expressing NDM-1 (CLB30005, CLB30016); assay type: cell-based; settings: with imipenem 1 μg/ml, 95% inhibition of bacterial growth; for Escherichia coli MITC95: NDM-1 (CLB30016)
Summary of the method: as §3

Chain of NDM-1 (C7C422 whole entry, looked up, species assumed): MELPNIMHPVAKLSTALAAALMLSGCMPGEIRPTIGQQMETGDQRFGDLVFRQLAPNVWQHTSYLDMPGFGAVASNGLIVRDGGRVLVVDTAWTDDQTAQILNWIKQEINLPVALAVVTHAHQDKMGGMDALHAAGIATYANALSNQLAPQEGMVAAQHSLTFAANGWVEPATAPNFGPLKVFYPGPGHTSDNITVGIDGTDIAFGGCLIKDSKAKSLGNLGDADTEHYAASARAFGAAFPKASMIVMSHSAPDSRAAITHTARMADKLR
Chain of IMP-1 (P52699 whole entry, looked up, species assumed): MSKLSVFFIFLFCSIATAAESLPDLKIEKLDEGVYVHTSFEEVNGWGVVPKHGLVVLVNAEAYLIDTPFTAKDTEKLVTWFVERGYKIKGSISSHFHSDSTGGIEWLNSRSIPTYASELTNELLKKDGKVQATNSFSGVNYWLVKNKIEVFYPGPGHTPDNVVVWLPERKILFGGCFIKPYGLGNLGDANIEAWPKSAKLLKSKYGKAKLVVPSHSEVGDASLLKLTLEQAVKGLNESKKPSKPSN

Cn1cnc2cc(-c3ccc(S(=O)(=O)C4CNC4)c(S(N)(=O)=O)c3-c3nnn[nH]3)cnc21.O=C(O)C(F)(F)F [Example 103, 3-((4-(3-methyl-3H-imidazo[4,5-b]pyridin-6-yl)-2-sulfamoyl-3-(1H-tetrazol-5-yl)phenyl)sulfonyl)azetidin-1-ium 2,2,2-trifluoroacetate]
P. aeruginosa expressing IMP-1, efflux+ (MB9798) MITC95 [1]: 12.5 µM
Efflux ratio [1]: 8.00
IC50 [2]: 1.85 nM
IC50 [3]: 0.954 nM
P. aeruginosa expressing IMP-1, efflux− (MB9799) MITC95 [4]: 1.563 µM
IC50 [5]: 0.581 nM
Serratia marcescens expressing IMP-1 (CL5741) MITC95 [6]: 3.125 µM
Klebsiella pneumoniae expressing VIM-1 (IHMA599644) MITC95 [7]: 6.25 µM
Escherichia coli expressing NDM-1 (CLB30016) MITC95 [8]: 12.5 µM

NCCNC(=O)c1cc(-c2ccc(S(=O)(=O)CCN)c(S(N)(=O)=O)c2-c2nn[nH]n2)cnc1N [compound 337, 2-amino-N-(2-aminoethyl)-5-(4-((2-aminoethyl)sulfonyl)-3-sulfamoyl-2-(2H-tetrazol-5-yl)phenyl)nicotinamide]
P. aeruginosa expressing IMP-1, efflux+ (MB9798) MITC95 [1]: 6.25 µM
Efflux ratio [1]: 8.00
IC50 [2]: 12.3 nM
IC50 [3]: 5.65 nM
P. aeruginosa expressing IMP-1, efflux− (MB9799) MITC95 [4]: 0.7813 µM
IC50 [5]: 4.38 nM
Serratia marcescens MITC95 [6]: 1.563 µM
Klebsiella pneumoniae MITC95 [7]: 1.563 µM
Escherichia coli MITC95 [8]: 0.7813 µM

NS(=O)(=O)c1c(S(=O)(=O)C2CCNCC2)ccc([C@H]2CC[C@H](N)CC2)c1-c1nnn[nH]1 [Example 207, 3-((1r,4r)-4-aminocyclohexyl)-6-(piperidin-4-ylsulfonyl)-2-(1H-tetrazol-5-yl) benzenesulfonamide]
P. aeruginosa expressing IMP-1, efflux+ (MB9798) MITC95 [1]: 3.125 µM
Efflux ratio [1]: 2.00
IC50 [2]: 24.6 nM
IC50 [3]: 15.9 nM
P. aeruginosa expressing IMP-1, efflux− (MB9799) MITC95 [4]: 1.563 µM
IC50 [5]: 0.71 nM
Serratia marcescens expressing IMP-1 (CL5741) MITC95 [6]: 3.125 µM
Klebsiella pneumoniae expressing VIM-1 (IHMA599644) MITC95 [7]: 3.125 µM
Escherichia coli expressing NDM-1 (CLB30016) MITC95 [8]: 2.344 µM

Cc1cc(-c2ccc(S(=O)(=O)CCN)c(S(N)(=O)=O)c2-c2nnn[nH]2)cnc1N.O=C(O)C(F)(F)F [Example 172, 2-((4-(6-amino-5-methylpyridin-3-yl)-2-sulfamoyl-3-(1H-tetrazol-5-yl)phenyl)sulfonyl)ethanaminium 2,2,2-trifluoroacetate]
P. aeruginosa expressing IMP-1, efflux+ (MB9798) MITC95 [1]: 6.25 µM
Efflux ratio [1]: 3.51
IC50 [2]: 4.9 nM
IC50 [3]: 2.98 nM
P. aeruginosa expressing IMP-1, efflux− (MB9799) MITC95 [4]: 1.781 µM
IC50 [5]: 0.193 nM
Serratia marcescens expressing IMP-1 (CL5741) MITC95 [6]: 1.281 µM
Klebsiella pneumoniae expressing VIM-1 (IHMA599644) MITC95 [7]: 3.125 µM
Escherichia coli expressing NDM-1 (CLB30016) MITC95 [8]: 0.25 µM

COc1ccc(-c2ccc(S(=O)(=O)CCN)c(S(N)(=O)=O)c2-c2nnn[nH]2)c2[nH]c(C(F)(F)F)nc12.O=C(O)C(F)(F)F [Example 164, 2-((4-(4-methoxy-2-(trifluoromethyl)-1H-benzo[d]imidazol-7-yl)-2-sulfamoyl-3-(1H-tetrazol-5-yl)phenyl)sulfonyl)ethanaminium 2,2,2-trifluoroacetate]
P. aeruginosa expressing IMP-1, efflux+ (MB9798) MITC95 [1]: 6.25 µM
Efflux ratio [1]: 2.00
IC50 [2]: 0.233 nM
IC50 [3]: 0.147 nM
P. aeruginosa expressing IMP-1, efflux− (MB9799) MITC95 [4]: 3.125 µM
IC50 [5]: 0.143 nM
Serratia marcescens expressing IMP-1 (CL5741) MITC95 [6]: 3.125 µM
Klebsiella pneumoniae expressing VIM-1 (IHMA599644) MITC95 [7]: 6.25 µM
Escherichia coli expressing NDM-1 (CLB30016) MITC95 [8]: 6.25 µM

CC(=O)N1CCC(S(=O)(=O)c2ccc(-c3cccc4nc(N)[nH]c34)c(-c3nn[nH]n3)c2S(N)(=O)=O)CC1 [Example 44, 6-(1-acetylpiperidin-4-ylsulfonyl)-3-(2-amino-3H-benzo[d]imidazol-4-yl)-2-(2H-tetrazol-5-yl)benzenesulfonamide]
P. aeruginosa expressing IMP-1, efflux+ (MB9798) MITC95 [1]: 100 µM
Efflux ratio [1]: 32.00
IC50 [2]: 1.98 nM
IC50 [3]: 0.447 nM
P. aeruginosa expressing IMP-1, efflux− (MB9799) MITC95 [4]: 3.125 µM
IC50 [5]: 0.299 nM
Serratia marcescens expressing IMP-1 (CL5741) MITC95 [6]: 6.25 µM
Klebsiella pneumoniae expressing VIM-1 (IHMA599644) MITC95 [7]: 25 µM
Escherichia coli expressing NDM-1 (CLB30016) MITC95 [8]: 6.25 µM

Nc1nc2cccc(-c3ccc(S(=O)(=O)C4CCNCC4)c(S(N)(=O)=O)c3-c3nn[nH]n3)c2[nH]1 [Example 42, 3-(2-amino-3H-benzo[d]imidazol-4-yl)-6-(piperidin-4-ylsulfonyl)-2-(2H-tetrazol-5-yl)benzenesulfonamide]
P. aeruginosa expressing IMP-1, efflux+ (MB9798) MITC95 [1]: 0.7813 µM
Efflux ratio [1]: 1.00
IC50 [2]: 1.19 nM
IC50 [3]: 0.177 nM
P. aeruginosa expressing IMP-1, efflux− (MB9799) MITC95 [4]: 0.7813 µM
IC50 [5]: 0.306 nM
Serratia marcescens expressing IMP-1 (CL5741) MITC95 [6]: 1.563 µM
Klebsiella pneumoniae expressing VIM-1 (IHMA599644) MITC95 [7]: 1.563 µM
Escherichia coli expressing NDM-1 (CLB30016) MITC95 [8]: 0.5859 µM

NS(=O)(=O)c1c(S(=O)(=O)CC2CNC2)ccc([C@H]2CC[C@H](N)CC2)c1-c1nnn[nH]1 [Example 204, 3-((1r,4r)-4-aminocyclohexyl)-6-((azetidin-3-ylmethyl)sulfonyl)-2-(1H-tetrazol-5-yl)benzenesulfonamide]
P. aeruginosa expressing IMP-1, efflux+ (MB9798) MITC95 [1]: 1.563 µM
Efflux ratio [1]: 2.00
IC50 [2]: 37.5 nM
IC50 [3]: 16.2 nM
P. aeruginosa expressing IMP-1, efflux− (MB9799) MITC95 [4]: 0.7813 µM
IC50 [5]: 1.04 nM
Serratia marcescens expressing IMP-1 (CL5741) MITC95 [6]: 1.563 µM
Klebsiella pneumoniae expressing VIM-1 (IHMA599644) MITC95 [7]: 1.563 µM
Escherichia coli expressing NDM-1 (CLB30016) MITC95 [8]: 0.7813 µM

NC(=O)c1cn2cccc(-c3ccc(S(=O)(=O)C4CNC4)c(S(N)(=O)=O)c3-c3nnn[nH]3)c2n1 [Example 59, 8-(4-(azetidin-3-ylsulfonyl)-3-sulfamoyl-2-(1H-tetrazol-5-yl)phenyl)imidazo[1,2-a]pyridine-2-carboxamide]
P. aeruginosa expressing IMP-1, efflux+ (MB9798) MITC95 [1]: 3.125 µM
Efflux ratio [1]: 2.00
IC50 [2]: 1.44 nM
IC50 [3]: 0.131 nM
P. aeruginosa expressing IMP-1, efflux− (MB9799) MITC95 [4]: 1.563 µM
IC50 [5]: 0.187 nM
Serratia marcescens expressing IMP-1 (CL5741) MITC95 [6]: 3.125 µM
Klebsiella pneumoniae expressing VIM-1 (IHMA599644) MITC95 [7]: 3.125 µM
Escherichia coli expressing NDM-1 (CLB30016) MITC95 [8]: 3.125 µM

NCCS(=O)(=O)c1ccc(-c2cccc3[nH]c(=O)[nH]c23)c(-c2nnn[nH]2)c1S(N)(=O)=O.O=C(O)C(F)(F)F [Example 150, 2-((4-(2-oxo-2,3-dihydro-1H-benzo[d]imidazol-4-yl)-2-sulfamoyl-3-(1H-tetrazol-5-yl)phenyl)sulfonyl)ethanaminium 2,2,2-trifluoroacetate]
P. aeruginosa expressing IMP-1, efflux+ (MB9798) MITC95 [1]: 1.563 µM
Efflux ratio [1]: 1.00
IC50 [2]: 0.931 nM
IC50 [3]: 0.497 nM
P. aeruginosa expressing IMP-1, efflux− (MB9799) MITC95 [4]: 1.563 µM
IC50 [5]: 0.44 nM
Serratia marcescens expressing IMP-1 (CL5741) MITC95 [6]: 3.125 µM
Klebsiella pneumoniae expressing VIM-1 (IHMA599644) MITC95 [7]: 3.125 µM
Escherichia coli expressing NDM-1 (CLB30016) MITC95 [8]: 3.125 µM

Nc1nc2cccc(-c3ccc(S(=O)(=O)C4CNC4)c(S(N)(=O)=O)c3-c3nn[nH]n3)n2n1 [Example 214, 3-(2-amino-[1,2,4]triazolo[1,5-a]pyridin-5-yl)-6-(azetidin-3-ylsulfonyl)-2-(2H-tetrazol-5-yl)benzenesulfonamide]
P. aeruginosa expressing IMP-1, efflux+ (MB9798) MITC95 [1]: 3.125 µM
Efflux ratio [1]: 2.00
IC50 [2]: 3.32 nM
IC50 [3]: 0.139 nM
P. aeruginosa expressing IMP-1, efflux− (MB9799) MITC95 [4]: 1.563 µM
IC50 [5]: 0.221 nM
Serratia marcescens expressing IMP-1 (CL5741) MITC95 [6]: 3.125 µM
Klebsiella pneumoniae expressing VIM-1 (IHMA599644) MITC95 [7]: 6.25 µM
Escherichia coli expressing NDM-1 (CLB30016) MITC95 [8]: 3.125 µM

NS(=O)(=O)c1c(S(=O)(=O)C2CNC2)ccc(-c2ccc3ncccc3c2)c1-c1nnn[nH]1.O=C(O)C(F)(F)F [Example 115, 3-((4-(quinolin-6-yl)-2-sulfamoyl-3-(1H-tetrazol-5-yl)phenyl)sulfonyl)azetidin-1-ium 2,2,2-trifluoroacetate]
P. aeruginosa expressing IMP-1, efflux+ (MB9798) MITC95 [1]: 12.5 µM
Efflux ratio [1]: 8.00
IC50 [2]: 0.793 nM
IC50 [3]: 0.236 nM
P. aeruginosa expressing IMP-1, efflux− (MB9799) MITC95 [4]: 1.563 µM
IC50 [5]: 0.276 nM
Serratia marcescens expressing IMP-1 (CL5741) MITC95 [6]: 3.125 µM
Klebsiella pneumoniae expressing VIM-1 (IHMA599644) MITC95 [7]: 3.125 µM
Escherichia coli expressing NDM-1 (CLB30016) MITC95 [8]: 3.125 µM

NCCS(=O)(=O)c1ccc(-c2ccccc2N)c(-c2nn[nH]n2)c1S(N)(=O)=O [Example 339, 2′-Amino-4-((2-aminoethyl)sulfonyl)-2-(2H-tetrazol-5-yl)-[1,1′-biphenyl]-3-sulfonamide]
P. aeruginosa expressing IMP-1, efflux+ (MB9798) MITC95 [1]: 6.25 µM
Efflux ratio [1]: 4.00
IC50 [2]: 3.42 nM
IC50 [3]: 2.52 nM
P. aeruginosa expressing IMP-1, efflux− (MB9799) MITC95 [4]: 1.563 µM
IC50 [5]: 1.78 nM
Serratia marcescens MITC95 [6]: 3.125 µM
Klebsiella pneumoniae MITC95 [7]: 3.125 µM
Escherichia coli MITC95 [8]: 1.563 µM
